Data set [1] relates to Colon 26. Kind of data set: Cytotoxicity against mouse Colon 26 cells assessed as cell viability at 1 to 10 uM after 24 hrs by WST-8 assay. As to conditions: colon 26, 24 h. In kind it is cell-based. (Tetrazolium dyes change colour on reduction, which living cells bring about.)
The subject of data set [2] is Serum. The data set is described as follows: Biodistribution in BALB/c mouse serum allografted with mouse Colon 26 cells at 10 umol/kg, iv measured at 24 hrs by spectrofluorometric analysis. In kind it is ADME, organism-based. To be noted: in vivo.
The test system of the next data set is Zone of skin. The data set is described as follows: Biodistribution in BALB/c mouse skin allografted with mouse Colon 26 cells at 10 umol/kg, iv measured at 24 hrs by spectrofluorometric analysis. To be noted: in vivo. In kind it is ADME, organism-based.
For another data set, the system named is Muscle tissue. The data set is described as follows: Biodistribution in BALB/c mouse muscle allografted with mouse Colon 26 cells at 10 umol/kg, iv measured at 24 hrs by spectrofluorometric analysis. In kind it is ADME, organism-based. As to conditions: in vivo.
The test system of the next data set is Brain. The data set is described as follows: Biodistribution in BALB/c mouse brain allografted with mouse Colon 26 cells at 10 umol/kg, iv measured at 24 hrs by spectrofluorometric analysis. In kind it is ADME, organism-based. As to conditions: in vivo.
The test system of the next data set is Lung. The data set is described as follows: Biodistribution in BALB/c mouse lung allografted with mouse Colon 26 cells at 10 umol/kg, iv measured at 24 hrs by spectrofluorometric analysis. In kind it is ADME, organism-based. To be noted: in vivo.
In a further data set the test system is Spleen. The data set is described as follows: Biodistribution in BALB/c mouse spleen allografted with mouse Colon 26 cells at 10 umol/kg, iv measured at 24 hrs by spectrofluorometric analysis. In kind it is ADME, organism-based. To be noted: in vivo.
For another data set, the system named is Kidney. Kind of data set: Biodistribution in BALB/c mouse kidney allografted with mouse Colon 26 cells at 10 umol/kg, iv measured at 24 hrs by spectrofluorometric analysis. In kind it is ADME, organism-based. To be noted: in vivo.
The test system of data set [3] is Liver. Kind of data set: Biodistribution in BALB/c mouse liver allografted with mouse Colon 26 cells at 10 umol/kg, iv measured at 24 hrs by spectrofluorometric analysis. In kind it is ADME, organism-based. To be noted: in vivo.
Data set [4] deals with Tumour. The data set is described as follows: Biodistribution in tumor of BALB/c mouse allografted with mouse Colon 26 cells at 10 umol/kg, iv measured at 12 hrs by spectrofluorometric analysis. In kind it is ADME, organism-based. As to conditions: in vivo.
Data set [5] in a line: Solubility of the compound in water. In kind it is physicochemical.
Data set [6] has as its system Colon 26. The data set is described as follows: Antitumor activity against mouse Colon 26 cells allografted in BALB/c mouse assessed as tumor growth inhibition at 10 umol/kg, iv pretreated for 3 hrs followed by light-emitting diode irradiation at 660 nm wavelength measured after 3 to 7 days by photodynamic therapy. In kind it is functional, organism-based. To be noted: tested as the 10B-labelled form.

The test system of data set [7] is Serum. Kind of data set: Biodistribution in BALB/c mouse serum allografted with mouse Colon 26 cells at 10 umol/kg, iv measured at 3 hrs by spectrofluorometric analysis. As to conditions: in vivo. In kind it is ADME, organism-based.
Data set [8] deals with Serum. Kind of data set: Biodistribution in BALB/c mouse serum allografted with mouse Colon 26 cells at 10 umol/kg, iv measured at 1 hr by spectrofluorometric analysis. In kind it is ADME, organism-based. To be noted: in vivo.
Data set [9] has as its system Serum. Kind of data set: Biodistribution in BALB/c mouse serum allografted with mouse Colon 26 cells at 10 umol/kg, iv measured at 6 to 12 hrs by spectrofluorometric analysis. As to conditions: in vivo. In kind it is ADME, organism-based.
For data set [10], the system named is Liver. The data set is described as follows: Biodistribution in BALB/c mouse liver allografted with mouse Colon 26 cells at 10 umol/kg, iv measured at 1 to 12 hrs by spectrofluorometric analysis. In kind it is ADME, organism-based. As to conditions: in vivo.
The subject of data set [11] is Tumour. The data set is described as follows: Biodistribution in tumor of BALB/c mouse allografted with mouse Colon 26 cells at 10 umol/kg, iv measured at 3 hrs by spectrofluorometric analysis. In kind it is ADME, organism-based. As to conditions: in vivo.

Activity calls are given as the source filed them. The rule behind the calls is not given here.

Usually solubility stands for the concentration that dissolves in the medium under given conditions. Low values mean a poorly soluble substance, high ones a readily soluble substance. With `C=Cc1c(C)c2cc3nc(cc4[nH]c(cc5nc(cc1[nH]2)C(C)(O)/C5=C\C=N\OCCCNC(=O)/C=C/c1ccc([10B](O)O)cc1)c(C)c4CCC(=O)N(CC(=O)[O-])CC(=O)[O-])C(CCC(=O)N(CC(=O)[O-])CC(=O)[O-])=C3C.[Na+].[Na+].[Na+].[Na+]` (configuration not stated), the Activity result with Colon 26 [1] is “Non-toxic”. In addition, the Drug uptake result in the data set on Serum [2] was “Not Active”; with Zone of skin, “Active”; in the data set on Muscle tissue it was “Active”; in the data set on Brain it was “Active”; in the data set with Lung, “Active”; in the data set with Spleen, “Active”. Besides, the Drug uptake entry in the data set with Kidney is given as “Active”; in the data set with Liver [3], “Active”; with Tumour [4] it was 0.21 pmol/mg. Besides, the solubility in data set [5] was 100 µg/mL.
Take `C=Cc1c(C)c2cc3nc(cc4[nH]c(cc5nc(cc1[nH]2)C(C)(O)/C5=C\C=N\OCC)c(C)c4CCC(=O)NC(Cc1ccc(B(O)O)cc1)C(=O)O)C(CCC(=O)NC(Cc1ccc(B(O)O)cc1)C(=O)O)=C3C` (configuration not stated): the TGI result in the data set with Colon 26 [6] was “Active”.
With `C=Cc1c(C)c2cc3nc(cc4[nH]c(cc5nc(cc1[nH]2)C(C)(O)/C5=C\C=N\OCC)c(C)c4CCC(=O)NC(Cc1ccc([10B](O)O)cc1)C(=O)[O-])C(CCC(=O)NC(Cc1ccc([10B](O)O)cc1)C(=O)[O-])=C3C.[Na+].[Na+]` (configuration not stated), the Activity entry in the data set with Colon 26 [1] was “Non-toxic”. For the same compound, the Drug uptake entry in the data set with Serum [2] was “Not Active”; in the data set with Zone of skin it was “Active”; in the data set with Muscle tissue, “Active”; in the data set with Brain it was “Active”; in the data set with Lung, “Active”; with Spleen it was “Active”. For the same compound, the Drug uptake result was “Active” with Kidney; 32.2 pmol/mg in the data set on Serum [7]; 7.6 pmol/mg in the data set with Serum [8]; “Active” with Serum [9]; “Active” with Liver [3]; “Active” in the data set on Liver [10]. Further, the Drug uptake in the data set on Tumour [11] is reported as 0.27 pmol/mg. The compound further registered a solubility in [5] of 100 µg/mL.
